Reference: patent US5373020A, “Substituted 5-(2-((2-aryl-2-hydroxyethyl)amino)propyl)-1,3-benzodioxoles” (American Cyanamid Company, priority 1993, dated 1994)
Counter-ions that a name gives are not always drawn.

Assays:
db/db mice = assay: Plasma glucose, compound in chow, diabetic mice; assay type: in vivo, mouse (C57 B1/KsJ db/db)
Method: (§1) The compounds of this invention were tested for hypoglycemic and anti-obesity activity according to the following procedure.
(§2) Obese mice (C57 B1/6J (ob/ob)), and/or diabetic mice (C57 B1/KsJ (db/db)) were obtained from Jackson Laboratories, Bar Harbor, Maine. Obese rats (fa/fa) were obtained from Charles River Laboratories, Wilmington, Mass. Obese mice were 8 weeks of age and diabetic mice were 9 weeks of age at the start of the test. Obese rats were 12-14 weeks of age at the start.
(§3) The test compounds were dissolved in methanol, mixed with powdered Purina rodent chow on a weight of compound to weight of chow basis and thoroughly dried.
(§4) Groups of 6 control mice or rats received vehicle (methanol) treated chow.
Groups of 6 test mice were fed ad libitum for up to seven weeks and food consumption was measured daily by weighing the food bins before and after the addition of fresh chow. Thus, a 40 g mouse, fed the test compound at a concentration of 0.02 percent of the diet, would receive a dose of 20 mg/kg/day if it ate 4 g of chow per day.
(§5) The mice or rats were weighed before the first treatment and once at the end of each indicated treatment period.
Blood samples were collected before the first treatment and once at the end of each indicated treatment period by retro-orbital puncture using heparinized capillary tubes.
Plasma was separated by centrifugation in a Beckman microfuge for 5 minutes. Plasma glucose concentrations were determined with the Beckman glucose analyzer which uses a glucose oxidase method.

fa/fa rats = assay: Change in weight and food consumption, compound in chow, obese rats; assay type: in vivo, rat (fa/fa)
Method: as §1, §2, §3, §4
Groups of 6 test rats were fed 25 g of chow per day for one month. Except for the first day or two, they consumed all their food each day. When these animals are fed ad libitum, they consume 26 g of chow per day and the compounds have no effect on food consumption.
as §5

[1] = dose 0.002 % wt of chow, week 1

SMILES: COC(=O)C1(C(=O)OC)Oc2ccc(C[C@@H](C)NC[C@H](O)c3cccc(Cl)c3)cc2O1 (stereo in doubt) [CL1, (R* R*)-(±)-5-(2-((2-(3-chlorophenyl)-2-hydroxyethyl)amino)propyl)-1,3-benzodioxole-2,2-dicarboxylic acid, dimethyl ester hydrobromide]
- Plasma Glucose Levels (db/db mice; dose 0.0005 % wt of chow, week 0 (before treatment)): 452 mg/100 ml
- Plasma Glucose Levels (db/db mice; dose 0.0005 % wt of chow, week 1): 162 mg/100 ml
- Plasma Glucose Levels (db/db mice; dose 0.0005 % wt of chow, week 5): 164 mg/100 ml
- Plasma Glucose Levels (db/db mice; dose 0.0005 % wt of chow, week 7): 17 mg/100 ml
- Plasma Glucose Levels (db/db mice; dose 0.002 % wt of chow, week 0 (before treatment)): 453 mg/100 ml
- Plasma Glucose Levels (db/db mice; [1]): 151 mg/100 ml
- Plasma Glucose Levels (db/db mice; dose 0.002 % wt of chow, week 5): 150 mg/100 ml
- Plasma Glucose Levels (db/db mice; dose 0.002 % wt of chow, week 7): 16 mg/100 ml
- Plasma Glucose Levels (db/db mice; dose 0.005 % wt of chow, week 0 (before treatment)): 447 mg/100 ml
- Plasma Glucose Levels (db/db mice; dose 0.005 % wt of chow, week 1): 148 mg/100 ml
- Plasma Glucose Levels (db/db mice; dose 0.005 % wt of chow, week 5): 138 mg/100 ml
- Plasma Glucose Levels (db/db mice; dose 0.005 % wt of chow, week 7): 18 mg/100 ml
- Average Daily Food Consumption (fa/fa rats; dose 0.0006 % wt of chow): 25 g/animal
- Change in weight (fa/fa rats; dose 0.0006 % wt of chow, week 1): 14 grams
- Change in weight (fa/fa rats; dose 0.0006 % wt of chow, week 2): 20 grams
- Change in weight (fa/fa rats; dose 0.0006 % wt of chow, week 3): 27 grams
- Change in weight (fa/fa rats; dose 0.0006 % wt of chow, week 4): 26 grams
- Average Daily Food Consumption (fa/fa rats; dose 0.002 % wt of chow): 25 g/animal
- Change in weight (fa/fa rats; [1]): 1 grams
- Change in weight (fa/fa rats; dose 0.002 % wt of chow, week 2): 2 grams
- Change in weight (fa/fa rats; dose 0.002 % wt of chow, week 3): 3 grams
- Change in weight (fa/fa rats; dose 0.002 % wt of chow, week 4): 4 grams
- Average Daily Food Consumption (fa/fa rats; dose 0.006 % wt of chow): 25 g/animal
- Change in weight (fa/fa rats; dose 0.006 % wt of chow, week 1): 10 grams
- Change in weight (fa/fa rats; dose 0.006 % wt of chow, week 2): 4 grams
- Change in weight (fa/fa rats; dose 0.006 % wt of chow, week 3): -15 grams
- Change in weight (fa/fa rats; dose 0.006 % wt of chow, week 4): -8 grams
